Experimental data from ChEMBL document CHEMBL1137466, “5'-Phenyl-3'H-spiro[indoline-3,2'-[1,3,4]thiadiazol]-2-one inhibitors of ADAMTS-5 (aggrecanase-2)” (Bioorg Med Chem Lett, 2007).

What was measured:
[1] = molecular target: T1, A disintegrin and metalloproteinase with thrombospondin motifs 5 (Homo sapiens, UniProt Q9UNA0); assay: Inhibition of ADAMTS5 by FRET assay
T1 sequence (Q9UNA0 whole entry): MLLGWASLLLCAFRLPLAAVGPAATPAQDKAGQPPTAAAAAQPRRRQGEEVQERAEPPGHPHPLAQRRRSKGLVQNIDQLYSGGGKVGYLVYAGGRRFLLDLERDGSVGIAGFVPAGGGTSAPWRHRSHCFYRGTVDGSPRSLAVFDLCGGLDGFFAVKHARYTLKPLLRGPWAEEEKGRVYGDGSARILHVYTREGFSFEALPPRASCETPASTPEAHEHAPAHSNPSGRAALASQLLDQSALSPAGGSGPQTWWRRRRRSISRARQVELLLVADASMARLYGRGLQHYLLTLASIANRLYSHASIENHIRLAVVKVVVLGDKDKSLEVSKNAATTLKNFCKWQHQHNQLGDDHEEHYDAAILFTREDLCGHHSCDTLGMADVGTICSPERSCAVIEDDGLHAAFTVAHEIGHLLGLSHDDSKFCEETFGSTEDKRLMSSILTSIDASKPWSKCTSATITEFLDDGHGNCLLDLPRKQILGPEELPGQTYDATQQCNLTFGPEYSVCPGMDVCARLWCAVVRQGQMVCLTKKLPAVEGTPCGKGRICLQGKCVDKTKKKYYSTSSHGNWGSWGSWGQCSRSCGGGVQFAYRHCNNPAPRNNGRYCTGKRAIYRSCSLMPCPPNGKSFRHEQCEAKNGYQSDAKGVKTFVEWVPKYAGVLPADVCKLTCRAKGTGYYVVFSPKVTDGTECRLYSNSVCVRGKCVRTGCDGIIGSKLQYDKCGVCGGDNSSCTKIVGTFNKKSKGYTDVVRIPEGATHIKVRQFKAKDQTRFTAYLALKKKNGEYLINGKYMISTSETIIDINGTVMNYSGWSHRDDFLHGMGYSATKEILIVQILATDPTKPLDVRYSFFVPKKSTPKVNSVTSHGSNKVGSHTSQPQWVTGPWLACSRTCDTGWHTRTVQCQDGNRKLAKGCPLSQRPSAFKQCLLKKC

[2] = molecular target: T2, A disintegrin and metalloproteinase with thrombospondin motifs 4 (Homo sapiens, UniProt O75173); assay: Inhibition of ADAMTS4
T2 sequence (O75173 whole entry): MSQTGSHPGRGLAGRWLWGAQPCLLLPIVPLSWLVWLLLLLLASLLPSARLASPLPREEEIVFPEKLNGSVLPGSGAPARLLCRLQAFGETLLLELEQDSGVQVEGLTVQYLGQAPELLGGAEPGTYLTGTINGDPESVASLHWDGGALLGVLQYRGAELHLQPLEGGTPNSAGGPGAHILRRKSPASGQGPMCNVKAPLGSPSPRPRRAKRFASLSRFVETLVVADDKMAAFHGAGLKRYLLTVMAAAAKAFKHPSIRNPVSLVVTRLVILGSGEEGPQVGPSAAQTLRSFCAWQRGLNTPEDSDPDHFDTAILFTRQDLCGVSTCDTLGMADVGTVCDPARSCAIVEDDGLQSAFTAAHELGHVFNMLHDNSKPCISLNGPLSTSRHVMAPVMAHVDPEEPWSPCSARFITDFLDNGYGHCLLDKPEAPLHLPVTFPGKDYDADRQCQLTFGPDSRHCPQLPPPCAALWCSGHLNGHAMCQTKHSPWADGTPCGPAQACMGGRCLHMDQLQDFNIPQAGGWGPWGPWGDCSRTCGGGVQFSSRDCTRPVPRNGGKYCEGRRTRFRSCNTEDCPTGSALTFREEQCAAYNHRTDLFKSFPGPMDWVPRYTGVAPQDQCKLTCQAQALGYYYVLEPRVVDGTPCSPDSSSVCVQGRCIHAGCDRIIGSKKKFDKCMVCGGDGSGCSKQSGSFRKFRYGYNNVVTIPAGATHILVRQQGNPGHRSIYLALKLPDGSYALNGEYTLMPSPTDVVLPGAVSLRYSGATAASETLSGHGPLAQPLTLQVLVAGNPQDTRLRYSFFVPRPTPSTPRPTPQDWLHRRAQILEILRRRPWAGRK

[3] = molecular target: Collagenase 3 (Homo sapiens, UniProt P45452); assay: Inhibition of MMP13
[4] = molecular target: Macrophage metalloelastase (Homo sapiens, UniProt P39900); assay: Inhibition of MMP12
Chain of Macrophage metalloelastase (P39900 whole entry): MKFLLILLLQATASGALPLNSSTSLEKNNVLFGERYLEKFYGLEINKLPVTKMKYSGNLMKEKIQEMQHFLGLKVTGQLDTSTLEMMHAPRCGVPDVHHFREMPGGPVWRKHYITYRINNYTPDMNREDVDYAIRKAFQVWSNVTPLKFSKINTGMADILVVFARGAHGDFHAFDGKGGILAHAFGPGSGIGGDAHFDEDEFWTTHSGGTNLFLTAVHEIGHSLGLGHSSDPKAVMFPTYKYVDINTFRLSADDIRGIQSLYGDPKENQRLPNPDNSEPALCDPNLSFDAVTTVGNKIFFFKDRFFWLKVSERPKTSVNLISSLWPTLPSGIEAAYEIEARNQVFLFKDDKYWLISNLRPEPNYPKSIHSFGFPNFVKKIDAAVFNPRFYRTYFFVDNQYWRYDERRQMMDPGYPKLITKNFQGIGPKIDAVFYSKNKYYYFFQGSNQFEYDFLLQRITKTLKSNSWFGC

IC50 [1] [µM] | IC50 [2] [µM] | IC50 [3] [µM] | IC50 [4] [µM] | Structure (SMILES)
2 | – | – | – | COc1ccc(C2=NNC3(S2)C(=O)Nc2ccc(Cl)cc23)cc1 (stereo unspecified)
– | > 22 | > 22 | 1.7 | CCCc1ccc2c(c1)NC(=O)C21NN=C(c2ccc(OC)cc2)S1 (stereo unspecified)
0.87 | > 22 | > 100 | 5.6 | COc1ccc(C2=NNC3(S2)C(=O)N(Cc2ccccc2)c2ccccc23)cc1 (stereo unspecified)
9.6 | – | – | – | CCc1ccc2c(c1)C1(NN=C(c3ccccc3)S1)C(=O)N2 (stereo unspecified)
3 | – | – | – | Cc1ccc(C2=NNC3(S2)C(=O)Nc2ccc(C)cc23)cc1 (stereo unspecified)
3.1 | – | – | – | CC(C)N1C(=O)C2(NN=C(c3ccccc3)S2)c2ccccc21 (stereo unspecified)
– | – | > 100 | > 22 | COc1ccc(C2=NNC3(S2)C(=O)N(Cc2ccccc2)c2ccc(C)cc23)cc1 (stereo unspecified)
24.2 | – | – | – | O=C1Nc2ccccc2C12NN=C(c1ccccc1)S2 (stereo unspecified)

Continued, molecule first:

Structure (SMILES) | IC50 [1] [µM] | IC50 [2] [µM] | IC50 [3] [µM] | IC50 [4] [µM]
Cc1ccc(C2=NNC3(S2)C(=O)Nc2ccccc23)cc1 (stereo unspecified) | 3.7 | – | – | –
CCc1ccc2c(c1)C1(NN=C(c3ccc(C)cc3)S1)C(=O)N2 (stereo unspecified) | 1.9 | – | – | –
CCc1ccc2c(c1)C1(NN=C(c3ccc(OC)cc3)S1)C(=O)N2 (stereo unspecified) | 1.4 | – | – | –
COc1ccc(C2=NNC3(S2)C(=O)Nc2cc(Cl)ccc23)cc1 (stereo unspecified) | 1.2 | – | – | –
Cc1ccc(C2=NNC3(S2)C(=O)N(c2ccccc2C)c2ccc(C)cc23)cc1 (stereo unspecified) | 1.2 | – | – | –
COc1ccc(C2=NNC3(S2)C(=O)N(C)c2ccccc23)cc1 (stereo unspecified) | 7.5 | – | – | –
COc1ccc(C2=NNC3(S2)C(=O)N(c2ccccc2C)c2ccc(C)cc23)cc1 (stereo unspecified) | – | 10.5 | > 100 | > 22
CCCc1cc2c(cc1C)C1(NN=C(c3ccc(OC)cc3)S1)C(=O)N2Cc1ccccc1 (stereo unspecified) | 0.95 | – | – | –
COc1ccc(C2=NNC3(S2)C(=O)Nc2ccc(C)cc23)cc1 (stereo unspecified) | 2.5 | – | – | –
Cc1ccc(C2=NNC3(S2)C(=O)N(C)c2ccccc23)cc1 (stereo unspecified) | 4.6 | – | – | –
